Assay results reported in patent US8741836B2, “Polypeptides” (Novo Nordisk A/S, priority 2011, dated 2014).
Starred links: 1 amine or outer side, 2 acyl side, 3 side chain; linkers in the order of their positions; H or OH if unused. Positions of bridges follow the written chain, without caps; N, C: chain ends. Residues, ends and D or L forms follow the SMILES beside them. *: point of attachment. C20 diacid = O=C(O)CCCCCCCCCCCCCCCCCCC(=O)*; γGlu = O=C(O)[C@H](CCC(=O)[*:2])N[*:1]

Assay: Assay (III) ThT fibrillation assay for physical stability
Format: physicochemical
Conditions: for ThT pH 4.0 lag time: pH 4.0, ThT fibrillation assay
Outline: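 Freshly prepared, pH-adjusted formulations with 1 μM ThT incubated at 37 °C under 960 rpm orbital shaking (1 mm), fluorescence (ex 444, em 485 nm) read every 20 min. […] Peptide content before and after measured by reverse-phase HPLC against pramlintide standard.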

With `CC[C@H](C)[C@H](NC(=O)[C@@H]1CCCN1C(=O)CNC(=O)[C@H](Cc1ccccc1)NC(=O)[C@H](CC(N)=O)NC(=O)[C@H](CC(N)=O)NC(=O)[C@H](CO)NC(=O)[C@H](CO)NC(=O)[C@H](Cc1c[nH]cn1)NC(=O)[C@H](CCCNC(=N)N)NC(=O)[C@H](CC(C)C)NC(=O)[C@H](Cc1ccccc1)NC(=O)[C@H](CCC(=O)O)NC(=O)[C@H](C)NC(=O)[C@H](CC(C)C)NC(=O)[C@H](CCCNC(=N)N)NC(=O)[C@H](CCC(N)=O)NC(=O)[C@@H](NC(=O)[C@H](C)NC(=O)[C@@H]1CSSC[C@H](NC(=O)[C@H](CCC(=O)O)NC(=O)[C@H](CCCNC(=N)N)NC(=O)[C@H](CCC(=O)O)NC(=O)CC[C@H](NC(=O)CCCCCCCCCCCCCCCCCCC(=O)O)C(=O)O)C(=O)N[C@@H](CC(N)=O)C(=O)N[C@@H]([C@@H](C)O)C(=O)N[C@@H](C)C(=O)N[C@@H]([C@@H](C)O)C(=O)N1)[C@@H](C)O)C(=O)N[C@@H](CC(C)C)C(=O)N1CCC[C@H]1C(=O)N1CCC[C@H]1C(=O)N[C@H](C(=O)N[C@@H](CC(N)=O)C(=O)N[C@H](C(=O)NCC(=O)N[C@@H](CO)C(=O)N[C@@H](CC(N)=O)C(=O)N[C@H](C(=O)N1CCC[C@H]1C(N)=O)[C@@H](C)O)C(C)C)[C@@H](C)O` [Example 124, N-alpha-[(S)-4-Carboxy-4-(19-carboxynonadecanoylamino)butyryl]-Glu-Arg-[Glu1,Glu14,Arg17,Pro37]-pramlintide] ({C20 diacid-γGlu}-ERECNTATCATQRLAEFLRHSSNNFGPILPPTNVGSNTP-NH2; disulfide 4-9 (inferred); C-terminus assumed) the “ThT pH 4.0 lag time (physical stability in fibrillogenesis assay)” value was over 45 h and the “ThT pH 4.0 lag time” value was over 45 h.

With `CC[C@H](C)[C@H](NC(=O)[C@@H]1CCCN1C(=O)CNC(=O)[C@H](Cc1ccccc1)NC(=O)[C@H](CC(N)=O)NC(=O)[C@H](CC(=O)O)NC(=O)[C@H](CO)NC(=O)[C@H](CO)NC(=O)[C@H](Cc1c[nH]cn1)NC(=O)[C@H](Cc1c[nH]cn1)NC(=O)[C@H](CC(C)C)NC(=O)[C@H](Cc1ccccc1)NC(=O)[C@H](CCC(=O)O)NC(=O)[C@H](C)NC(=O)[C@H](CC(C)C)NC(=O)[C@H](CCCNC(=N)N)NC(=O)[C@H](CCC(N)=O)NC(=O)[C@@H](NC(=O)[C@H](C)NC(=O)[C@@H]1CSSC[C@H](NC(=O)[C@H](CCCCN)NC(=O)CC[C@H](NC(=O)CCCCCCCCCCCCCCCCCCC(=O)O)C(=O)O)C(=O)N[C@@H](CC(N)=O)C(=O)N[C@@H]([C@@H](C)O)C(=O)N[C@@H](C)C(=O)N[C@@H]([C@@H](C)O)C(=O)N1)[C@@H](C)O)C(=O)N[C@@H](CC(C)C)C(=O)N1CCC[C@H]1C(=O)N1CCC[C@H]1C(=O)N[C@H](C(=O)N[C@@H](CC(N)=O)C(=O)N[C@H](C(=O)NCC(=O)N[C@@H](CO)C(=O)N[C@@H](Cc1c[nH]cn1)C(=O)N[C@H](C(=O)N[C@@H](Cc1ccc(O)cc1)C(N)=O)[C@@H](C)O)C(C)C)[C@@H](C)O` [Example 128, N-alpha-[(S)-4-Carboxy-4-(19-carboxynonadecanoylamino)butyryl]-[Glu14,His17,Asp21,His35]-pramlintide] ({C20 diacid-γGlu}-KCNTATCATQRLAEFLHHSSDNFGPILPPTNVGSHTY-NH2; disulfide 2-7) the “ThT pH 4.0 lag time” value was over 45 h.

For `CC[C@H](C)[C@H](NC(=O)[C@@H]1CCCN1C(=O)CNC(=O)[C@H](Cc1ccccc1)NC(=O)[C@H](CC(N)=O)NC(=O)[C@H](CCC(N)=O)NC(=O)[C@H](CO)NC(=O)[C@H](CO)NC(=O)[C@H](Cc1c[nH]cn1)NC(=O)[C@H](Cc1c[nH]cn1)NC(=O)[C@H](CC(C)C)NC(=O)[C@H](Cc1ccccc1)NC(=O)[C@H](CCC(=O)O)NC(=O)[C@H](C)NC(=O)[C@H](CC(C)C)NC(=O)[C@H](CCCNC(=N)N)NC(=O)[C@H](CCC(N)=O)NC(=O)[C@@H](NC(=O)[C@H](C)NC(=O)[C@@H]1CSSC[C@H](NC(=O)[C@H](CCCCN)NC(=O)CC[C@H](NC(=O)CCCCCCCCCCCCCCCCCCC(=O)O)C(=O)O)C(=O)N[C@@H](CC(N)=O)C(=O)N[C@@H]([C@@H](C)O)C(=O)N[C@@H](C)C(=O)N[C@@H]([C@@H](C)O)C(=O)N1)[C@@H](C)O)C(=O)N[C@@H](CC(C)C)C(=O)N1CCC[C@H]1C(=O)N1CCC[C@H]1C(=O)N[C@H](C(=O)N[C@@H](CC(N)=O)C(=O)N[C@H](C(=O)NCC(=O)N[C@@H](CO)C(=O)N[C@@H](CC(N)=O)C(=O)N[C@H](C(=O)N1CCC[C@H]1C(N)=O)[C@@H](C)O)C(C)C)[C@@H](C)O` [Example 130, N-alpha-[(S)-4-Carboxy-4-(19-carboxynonadecanoylamino)butyryl]-[Glu14,His17,Gln21,Pro37]-pramlintide] ({C20 diacid-γGlu}-KCNTATCATQRLAEFLHHSSQNFGPILPPTNVGSNTP-NH2; disulfide 2-7), the “ThT pH 4.0 lag time (physical stability in fibrillogenesis assay)” value was over 45 h and the “ThT pH 4.0 lag time” value was over 45 h.

With `CC[C@H](C)[C@H](NC(=O)[C@@H]1CCCN1C(=O)CNC(=O)[C@H](Cc1ccccc1)NC(=O)[C@H](CC(N)=O)NC(=O)[C@H](CC(N)=O)NC(=O)[C@H](CO)NC(=O)[C@H](CO)NC(=O)[C@H](Cc1c[nH]cn1)NC(=O)[C@H](Cc1c[nH]cn1)NC(=O)[C@H](CC(C)C)NC(=O)[C@H](Cc1ccccc1)NC(=O)[C@H](CCC(=O)O)NC(=O)[C@H](C)NC(=O)[C@H](CC(C)C)NC(=O)[C@H](CCCNC(=N)N)NC(=O)[C@H](CCC(N)=O)NC(=O)[C@@H](NC(=O)[C@H](C)NC(=O)[C@@H]1CSSC[C@H](NC(=O)[C@H](CCCCN)NC(=O)CC[C@H](NC(=O)CCCCCCCCCCCCCCCCCCC(=O)O)C(=O)O)C(=O)N[C@@H](CC(N)=O)C(=O)N[C@@H]([C@@H](C)O)C(=O)N[C@@H](C)C(=O)N[C@@H]([C@@H](C)O)C(=O)N1)[C@@H](C)O)C(=O)N[C@@H](CC(C)C)C(=O)N1CCC[C@H]1C(=O)N1CCC[C@H]1C(=O)N[C@H](C(=O)N[C@@H](CC(N)=O)C(=O)N[C@H](C(=O)NCC(=O)N[C@@H](CO)C(=O)N[C@@H](CCC(N)=O)C(=O)N[C@H](C(=O)N1CCC[C@H]1C(N)=O)[C@@H](C)O)C(C)C)[C@@H](C)O` [Example 135, N-alpha-[(S)-4-Carboxy-4-(19-carboxynonadecanoylamino)butyryl]-[Glu14,His17,Gln35,Pro37]-pramlintide] ({C20 diacid-γGlu}-KCNTATCATQRLAEFLHHSSNNFGPILPPTNVGSQTP-NH2; disulfide 2-7) the “ThT pH 4.0 lag time (physical stability in fibrillogenesis assay)” value was over 45 h and the “ThT pH 4.0 lag time” value was over 45 h.

For `CC[C@H](C)[C@H](NC(=O)[C@@H]1CCCN1C(=O)CNC(=O)[C@H](Cc1ccccc1)NC(=O)[C@H](CC(N)=O)NC(=O)[C@H](CCC(N)=O)NC(=O)[C@H](CO)NC(=O)[C@H](CO)NC(=O)[C@H](Cc1c[nH]cn1)NC(=O)[C@H](Cc1c[nH]cn1)NC(=O)[C@H](CC(C)C)NC(=O)[C@H](Cc1ccccc1)NC(=O)[C@H](CCC(=O)O)NC(=O)[C@H](C)NC(=O)[C@H](CC(C)C)NC(=O)[C@H](CCCNC(=N)N)NC(=O)[C@H](CCC(N)=O)NC(=O)[C@@H](NC(=O)[C@H](C)NC(=O)[C@@H]1CSSC[C@H](NC(=O)[C@H](CCCCN)NC(=O)CC[C@H](NC(=O)CCCCCCCCCCCCCCCCCCC(=O)O)C(=O)O)C(=O)N[C@@H](CC(N)=O)C(=O)N[C@@H]([C@@H](C)O)C(=O)N[C@@H](C)C(=O)N[C@@H]([C@@H](C)O)C(=O)N1)[C@@H](C)O)C(=O)N[C@@H](CC(C)C)C(=O)N1CCC[C@H]1C(=O)N1CCC[C@H]1C(=O)N[C@H](C(=O)N[C@@H](CC(N)=O)C(=O)N[C@H](C(=O)NCC(=O)N[C@@H](CO)C(=O)N[C@@H](CCC(N)=O)C(=O)N[C@H](C(=O)N1CCC[C@H]1C(N)=O)[C@@H](C)O)C(C)C)[C@@H](C)O` [Example 136, N-alpha-[(S)-4-Carboxy-4-(19-carboxynonadecanoylamino)butyryl]-[Glu14,His17,Gln21,Gln35,Pro37]-pramlintide] ({C20 diacid-γGlu}-KCNTATCATQRLAEFLHHSSQNFGPILPPTNVGSQTP-NH2; disulfide 2-7 (inferred)), the “ThT pH 4.0 lag time (physical stability in fibrillogenesis assay)” value was over 45 h and the “ThT pH 4.0 lag time” value was over 45 h.

In the case of `CC[C@H](C)[C@H](NC(=O)[C@@H]1CCCN1C(=O)CNC(=O)[C@H](Cc1ccccc1)NC(=O)[C@H](CC(N)=O)NC(=O)[C@H](CCC(N)=O)NC(=O)[C@H](CO)NC(=O)[C@H](CO)NC(=O)[C@H](Cc1c[nH]cn1)NC(=O)[C@H](Cc1c[nH]cn1)NC(=O)[C@H](CC(C)C)NC(=O)[C@H](Cc1ccccc1)NC(=O)[C@H](CCC(=O)O)NC(=O)[C@H](C)NC(=O)[C@H](CC(C)C)NC(=O)[C@H](CCCNC(=N)N)NC(=O)[C@H](CCC(N)=O)NC(=O)[C@@H](NC(=O)[C@H](C)NC(=O)[C@@H]1CSSC[C@H](NC(=O)CNC(=O)CC[C@H](NC(=O)CCCCCCCCCCCCCCCCCCC(=O)O)C(=O)O)C(=O)N[C@@H](CC(N)=O)C(=O)N[C@@H]([C@@H](C)O)C(=O)N[C@@H](C)C(=O)N[C@@H]([C@@H](C)O)C(=O)N1)[C@@H](C)O)C(=O)N[C@@H](CC(C)C)C(=O)N1CCC[C@H]1C(=O)N1CCC[C@H]1C(=O)N[C@H](C(=O)N[C@@H](CC(N)=O)C(=O)N[C@H](C(=O)NCC(=O)N[C@@H](CO)C(=O)N[C@@H](CCC(N)=O)C(=O)N[C@H](C(=O)N1CCC[C@H]1C(N)=O)[C@@H](C)O)C(C)C)[C@@H](C)O` [Example 137, N-alpha-[(S)-4-Carboxy-4-(19-carboxynonadecanoylamino)butyryl]-[Gly1,Glu14,His17,Gln21,Gln35,Pro37]-pramlintide] ({C20 diacid-γGlu}-GCNTATCATQRLAEFLHHSSQNFGPILPPTNVGSQTP-NH2; disulfide 2-7 (inferred)), the “ThT pH 4.0 lag time” value is reported as 29 h.
